Test results published in patent US20230404994A1, “MARKERS OF TISSUE AGING AND USES THEREFOR” (The University of Newcastle, priority 2017, published 2023).
“Also recorded” adds a separate entry of the source.

Columns and labels:
[1] = test system: serum starved placental explants; assay: Placental explant culture in serum-free medium, 4HNE / LC3B / LAMP2 immunohistochemistry; assay type: cell-based, human; settings: 24 hr of treatment; for disturbance in autophagosome size / disturbance in lysosomal location: serum starved placental explants; for production of 4HNE (induced by serum starvation): term placental explants, serum-free medium, 1 nM, p<0.05 (N=6)
Excerpt: For in vitro experiments, human term placentas (38-39 weeks of gestation) were obtained from women with normal singleton pregnancies without any symptoms of labour after an elective (a scheduled repeat) caesarean section. Placentas were collected immediately after delivery and prepared for explant culture. Villous tissues of placentas were randomly sampled from different regions of placenta and 4-5 mm beneath the chorionic plate. Tissues were washed several times with Dulbecco's phosphate-buffered saline (DPBS) under sterile condition to remove excess blood.
Villous explants of ˜2 mm^3 were dissected and placed into 100×20 mm culture dishes (30 pieces/dish) containing 25 ml of Dulbecco's modified Eagle's medium (DMEM) supplemented with 2 mM L-glutamine, 1% Na-pyruvate, 1% penicillin/streptomycin (100×) solution with the addition of 10% (v/v) fetal bovine serum (FBS) and were cultured in a cell culture chamber at 37° C. temperature and maintaining 95% air (20% oxygen) and 5% CO2 for 24 hours. At day 2, villous explants were transferred to fresh 30 ml growth medium and incubated in a cell culture chamber for 90 minutes. After this the tissues were washed in DMEM without FBS (refer to as ‘serum-free medium’ or ‘growth factor deficient medium’). Next 6-7 pieces of villous tissue weighing approximately 400 mg were transferred to a culture dish (60×15 mm) containing 6 ml serum-free medium with or without the addition of pharmacological agents, for example, raloxifene (1 nM) and GPER1 agonist G1 (1 nM), for subsequent incubation up to 24 h. At the end of 24 h some tissues were fixed in 2% formaldehyde, subjected to routine histological processing and embedded in paraffin wax, and some tissues were immediately frozen in liquid nitrogen and stored at −80° C. until subsequent experiments. For each placental explant culture, samples were also collected at time ‘0 (zero)’ h i.e., before incubation in serum free medium, and were formalin fixed and stored frozen at −80° C. until further experiments.
6 μm paraffin placental sections were deparaffinised and hydrated, then heated with tris-EDTA buffer (pH 9) in a microwave oven for antigen retrieval. The sections were blocked with 1% BSA in TBST for an hour at room temperature. The sections were incubated with primary antibodies overnight and washed three times with TBST, before incubation with Alexa-conjugated secondary antibodies for 90 mins. The sections were mounted with antifade solution with DAPI. The fluorescent photographs for FIGS. 3 to 7, 9 and 11 were taken on a Nikon eclipse 90i confocal microscope. The fluorescent photographs for FIG. 10 were taken on Nikon eclipse Ti fluorescence microscope.
The present data provide clear evidence for increased lipid oxidation, disordered lysosome-autophagosome interactions and increased AOX1 expression in the post-dated and stillbirth placental syncytiotrophoblast. To determine if these events were causally linked the inventors developed a placental explant culture system using term placental tissue cultured in serum-free (growth factor deficient) medium.
The inventors sought to determine cause and effect relationships between the development of lipid oxidation observed when placental explants were cultured in the absence of serum and AOX1. The GPER agonist G-1 was used to inhibit aldehyde oxidase. The potent AOX1 inhibitor, raloxifene, was also used.

kidney = settings: Lindsey et al., 2011, Hypertension, 58: 665-671; cited from earlier work

| Compound | disturbance in autophagosome size [1] | disturbance in lysosomal location [1] | production of 4HNE (induced by serum starvation) [1] | production of 4HNE in the kidney (kidney) |
| --- | --- | --- | --- | --- |
| CC(=O)c1ccc2c(c1)C1C=CCC1C(c1cc3c(cc1Br)OCO3)N2 (stereo not shown) [G1, 1-[4-(6-bromobenzo[1,3]dioxol-5yl)-3a,4,5,9b-tetrahydro-3H-cyclopenta[c]quinolin-8-yl]-ethanone] | able to block | able to block | inhibited the production of 4HNE; also recorded: significantly reduced | inhibit production of 4HNE in the kidney |
| O=C(c1ccc(OCCN2CCCCC2)cc1)c1c(-c2ccc(O)cc2)sc2cc(O)ccc12 [raloxifene] | able to block | able to block | inhibited the production of 4HNE; also recorded: significantly reduced |  |
